How the values were obtained:
[1] = WST-1 proliferation assay, PANC-1; type: cell-based; conditions: human, PANC-1 cells (pancreas epithelioid carcinoma), vs 0.1% DMSO control = 100%, mean ± standard deviation
Protocol: A thorough analysis of antiproliferative activity was performed across various cell culture types representing different histotypes: leukemia (Jurkat, MOLT-4), lung adenocarcinoma (A549), colorectal adenocarcinoma (HT-29), pancreatic carcinoma (PANC-1), breast adenocarcinoma (MCF-7), osteosarcoma (SAOS-2), and one non-cancerous cell line (fetal lung fibroblasts MRC-5). The cell lines were exposed to the newly synthesized compounds at a concentration of 100 μM for 48 h in a single-dose treatment. Changes in cell proliferation compared to the vehicle 0.1% dimethyl sulfoxide (DMSO) control were determined using the WST-1 assay, which is based on mitochondrial dehydrogenase metabolic activities. […] The overall cytotoxic activity of each compound was expressed as growth percent (GP) – the mean of the proliferation of all cell lines treated with the same compound.
Selected human tumor and non-tumor cell lines Jurkat (acute T-cell leukemia), MOLT-4 (acute lymphoblastic leukemia), A549 (lung carcinoma), HT-29 (colorectal adenocarcinoma), PANC-1 (pancreas epithelioid carcinoma), MCF-7 (breast adenocarcinoma), SAOS-2 (osteosarcoma) and MRC-5 (normal lung fibroblasts) were purchased from either American Type Culture Collection (ATCC; VA, USA) or Sigma-Aldrich (St. Louis, MO, USA) and cultured according to the provider's culture method guidelines. All cell lines were maintained at 37 °C in a humidified 5% carbon dioxide and 95% air incubator. Cells in the maximum range of either 10 passages for the adherent cell lines (A549, HT-29, PANC-1, MCF-7, SAOS-2, and MRC-5), or 20 passages for suspension cell lines (Jurkat, MOLT-4,) and in an exponential growth phase were used for this study. Screening of the antiproliferative effect and growth percent calculation were conducted as follows: each cell line was seeded at previously established optimal density (1–50 × 10^3 cells per well) in a 96-well plate (TPP, Trasadingen, Switzerland) and cells were allowed to settle overnight. Cells were treated for 48 h with compounds at a final concentration of 100 μM. At the end of the cultivation period, the WST-1 proliferation assay (Roche, Basel, Switzerland) was performed according to the manufacturer's protocol. The absorbance was measured at 440 nm using a Tecan Spark multimode microplate reader (Tecan, Mannedorf, Switzerland). Each value is the mean of three independent experiments and represents the percentage of proliferation (100% cell proliferation for 0.1% DMSO mock-treated control cells). The GP value was calculated for each compound tested. GP represents the mean of the percentage proliferation decrease of all cell lines treated with the same compound.

[2] = test system: Whole blood from healthy human donors; assay: Dicentric chromosome assay (DCA); type: cell-based; conditions: 3 Gy gamma
Protocol: The radioprotective effect of eight compounds was assessed using the cytogenetic method of DCA. DCA is known for its high sensitivity to radiation exposure and its specificity, and is thus considered a gold standard for biological dosimetry. It is also applicable to reveal the radioprotective potential of substances, as their effect is to protect DNA from forming dicentric chromosomes after IR exposure. This assay included six newly synthesized substances as well as amifostine (WR2721) and its active form (WR1065). WR2721 and WR1065 served as benchmarks, allowing us to measure the radioprotective effect of our compounds against these well-established radioprotectors. Whole blood from healthy human donors was utilized for DCA, and it was irradiated with 3 Gy gamma radiation after exposure to the tested compounds. Each experiment included irradiated and non-irradiated controls. The experiments were conducted at two different concentrations of the substances. For the newly synthesized compounds, 100 μM and an optimal non-toxic concentration which varied between 200–1000 μM were used. […] The results were interpreted as the number of dicentric chromosomes per cell.
To express the radioprotective effect the radioprotection factor (RF) was calculated as the […] (Table 2). RF expresses how many-fold the DC count in the sample decreased compared to the irradiated control.
Blood samples from healthy male donors were taken in heparinized tubes, with informed consent and the approval of a local ethics committee. Blood samples (1 ml) were treated with eight different substances (WR2721, WR1065, and 1–6) in two different concentrations. Non-treated irradiated and non-treated non-irradiated controls were included. All samples were exposed to a single dose of 3 Gy of gamma radiation (at the dose rate of 0.6 Gy min^−1, using the ^60Co Chisobalt, Chirana, Prague, Czech Republic). […] The dose of 3 Gy was selected to ensure a sufficient quantity of dicentric chromosomes in lymphocytes. Immediately after irradiation, the samples were placed in a humidified atmosphere with 5% CO2 at 37 °C for 30 min. Treated and irradiated blood samples were added to T-25 cultivation flasks containing 10 ml RPMI 1640 with 20% fetal bovine serum and 2% phytohaemagglutinin (all Gibco by Thermo Fisher Scientific, Waltham, MA, USA). Colcemid at a final concentration of 0.25 μg ml^−1 (Gibco by Thermo Fisher Scientific, Waltham, MA, USA) was added to each culture tube 48 h after culture initiation. Cells were cultivated for another 2 h and then harvested.
At the harvest time (total time 50 h), cell pellets obtained after centrifugation at 600 × g for 3 min were resuspended and treated with 10 ml of prewarmed 0.075 M solution of potassium chloride (Gibco by Thermo Fisher Scientific, Waltham, MA, USA) for 20 min. After another centrifugation, cells were treated three times with fixative solution consisting of 3 : 1 (v/v) methanol : acetic acid (penta Chemicals, Prague, Czech Republic). Fixed cells were dropped on ice-cold microscope slides, air-dried overnight, and stained with 5% Giemsa solution (P-Lab, Prague, Czech Republic) for 6 min. Prepared slides were evaluated using automated metaphase finding systems. The slides with metaphases were analyzed by Axio Imager 2 (Carl Zeiss Microscopy GmbH, Göttingen, Germany) and Metafer 4 software (MetaSystems Hard & Software GmbH, Altlußheim, Germany). At first, the images of the metaphases in lower magnification were acquired (MSearch TL mode). Following that, the images of good-quality metaphases in higher resolution were acquired (AutoCapt mode). The data obtained were analyzed manually (manual selection of good-quality metaphases and dicentric chromosome detection).

[3] = 100 μM, 60 min pre-exposure, lower concentrations experiment
[4] = 500 μM (optimal non-toxic concentration), 60 min pre-exposure
[5] = 10 μM, 30 min pre-exposure, lower concentrations experiment
[6] = 100 μM, 30 min pre-exposure, higher concentrations experiment

SMILES	viability at 48 h, 100 µM [1]	RF (radioprotection factor) [2, 3]	RF (radioprotection factor) [2, 4]	RF (radioprotection factor) ([2]; 200 μM (optimal non-toxic concentration), 60 min pre-exposure)	RF (radioprotection factor) [2, 5]	RF (radioprotection factor) [2, 6]
COc1cc([N+](=O)[O-])ccc1OCC(O)CN1CCN(CCO)CC1 (centres unmarked) [Compound 1, 1-(4-(2-Hydroxyethyl)piperazin-1-yl)-3-(2-methoxy-4-nitrophenoxy)propan-2-ol]	108 ± 3%	1.42	1.97			
COc1ccc(OCC(O)CN2CCN(CCO)CC2)c([N+](=O)[O-])c1 (centres unmarked) [Compound 2, 1-(4-(2-Hydroxyethyl)piperazin-1-yl)-3-(4-methoxy-2-nitrophenoxy)propan-2-ol]	104 ± 3%	1.23	1.97			
O=[N+]([O-])c1ccc(OCC(O)CN2CCN(CCO)CC2)c(F)c1 (centres unmarked) [Compound 3, 1-(4-(2-Hydroxyethyl)piperazin-1-yl)-3-(2-fluoro-4-nitrophenoxy)propan-2-ol]	90 ± 4%	2.43	4.16			
OCCN1CCN(CC(O)COc2ccc(F)cc2)CC1 (centres unmarked) [Compound 4, 1-(4-(2-Hydroxyethyl)piperazin-1-yl)-3-(4-fluorophenoxy)propan-2-ol]	97 ± 1%	1.65				
O=[N+]([O-])c1cc(OCC(O)CN2CCN(CCO)CC2)ccc1Cl (centres unmarked) [Compound 5, 1-(4-(2-Hydroxyethyl)piperazin-1-yl)-3-(4-chloro-3-nitrophenoxy)propan-2-ol]	100 ± 3%	1.65		1.91		
OCCN1CCN(CC(O)COc2cccc(Cl)c2)CC1 (centres unmarked) [Compound 6, 1-(4-(2-Hydroxyethyl)piperazin-1-yl)-3-(3-chlorophenoxy)propan-2-ol]	94 ± 3%	2.1	2.69			
NCCCNCCS [WR1065, reference compound]	3 ± 1%				1.59	1.96
NCCCNCCSP(=O)(O)O [WR2721, amifostine, reference compound]	8 ± 4%				1.33	1.45
